These are literature values, as cited in US20130202650A1, “TOPICAL COMPOSITION COMPRISING A COMBINATION OF AT LEAST TWO PENETRATION ENHANCING AGENTS” (Moberg Derma AB, priority 2008, published 2013).

For this data set the following is noted: tBtOH-IPM (2:8) vehicle; mouse.

Counter-ions that a name gives are not always drawn.

In the case of `CN1[C@@H]2CC[C@H]1C[C@@H](OC(c1ccccc1)c1ccccc1)C2` [BZ mesylate, benztropine], the BZ flux from the mesylate salt is 2020 µg/cm²/h; the “BZ flux, fold greater than from water” value is listed as 100 fold; the “BZ flux, fold greater than the individual neat solvents” value was 44-540 fold.
